MIC data for two compounds are collected here from US3961075A, “Ether-linked quaternary ammonium compositions” (Colgate-Palmolive Company, priority 1975, dated 1976).

Holding throughout (assay type): cell-based
Test [1] relates to T. mentagrophytes. Briefly: standard test tube serial dilution test, T. mentagrophytes. As to conditions: Trichophyton mentagrophytes, broth serial dilution, read-out: Minimum Inhibitory Concentration. The protocol: (§1) The anti-microbial nature of the instant novel compounds was shown by a standard test tube serial dilution test in which an appropriate number of test tubes of broth containing decreasing concentrations of the test agent was innoculated with the test organism. After a suitable period of incubation, the tubes were examined for the presence or absence of growth. The activity of the test agent was the lowest concentration which inhibited the growth of the organism and is expressed as the minimal inhibitory concentration in ug/ml.

The subject of test [2] is S. aureus. Briefly: standard test tube serial dilution test, S. aureus. As to conditions: Staphylococcus aureus, broth serial dilution, read-out: Minimum Inhibitory Concentration. The protocol: as §1
The subject of test [3] is A. niger. Briefly: standard test tube serial dilution test, A. niger. To be noted: Aspergillus niger, broth serial dilution, read-out: Minimum Inhibitory Concentration. The protocol:
as §1

Test [4] deals with Ps. aeruginosa. Briefly: standard test tube serial dilution test, Ps. aeruginosa. As to conditions: Pseudomonas aeruginosa, broth serial dilution, read-out: Minimum Inhibitory Concentration. As for the experimental part:
as §1

Test [5] concerns C. albicans. Briefly: standard test tube serial dilution test, C. albicans. As to conditions: Candida albicans, broth serial dilution, read-out: Minimum Inhibitory Concentration. The protocol:
as §1

Test [6] relates to E. coli. Briefly: standard test tube serial dilution test, E. coli. As to conditions: Escherichia coli, broth serial dilution, read-out: Minimum Inhibitory Concentration. The protocol:
as §1

The subject of test [7] is Str. mitis. Briefly: standard test tube serial dilution test, Str. mitis. To be noted: Streptococcus mitis, broth serial dilution, read-out: Minimum Inhibitory Concentration. As for the experimental part: as §1
The test system of test [8] is P. ovale. Briefly: standard test tube serial dilution test, P. ovale. As to conditions: broth serial dilution, read-out: Minimum Inhibitory Concentration. The protocol: as §1

`CCCCCCCCCCCCCC[N+](C)(C)CCOC12CC3CC(CC(C3)C1)C2` [C14 H29, 2(1^1 -adamantyloxy)ethyldimethyltetradecylammonium bromide]: the MIC in test [1] was 6.25 µg/mL; in test [2], 0.78 µg/mL; in test [3], 50 µg/mL; in test [4] it was more than 25 µg/mL; in test [5], 1.56 µg/mL; in test [6], 12.5 µg/mL. Moreover, the MIC in test [7] was 0.39 µg/mL; in test [8] it was more than 50 µg/mL.
On to `CCCCCCCCCCCC[N+](C)(C)CCOC12CC3CC(CC(C3)C1)C2` [C12 H25, 2-(1^1-adamantyloxy)ethyldimethyldodecyl ammonium bromide], for which the MIC in test [1] is 3.12 µg/mL; in test [2] it was 0.39 µg/mL; in test [3] it was 50 µg/mL; in test [4], more than 25 µg/mL; in test [5], 1.56 µg/mL; in test [6], 12.5 µg/mL. In addition, the MIC in test [7] is 0.19 µg/mL; in test [8], more than 50 µg/mL.
